Reference: ChEMBL document CHEMBL1154015, “Structural and theoretical studies of [6-bromo-1-(4-fluorophenylmethyl)-4(1H)-quinolinon-3-yl)]-4-hydroxy-2-oxo-3-butenoïc acid as HIV-1 integrase inhibitor” (Bioorg Med Chem Lett, 2009)

Assays:
[1] = biological target: T1, Human immunodeficiency virus type 1 integrase (Human immunodeficiency virus 1, UniProt Q7ZJM1); experiment: Inhibition of HIV1 integrase 3'-processing activity expressed in Escherichia coli BL21 (DE3) by gel based assay in presence of magnesium
[2] = biological target: T1, Human immunodeficiency virus type 1 integrase; experiment: Inhibition of HIV1 integrase strand transfer activity expressed in Escherichia coli BL21 (DE3) by gel based assay in presence of magnesium
[3] = Selectivity index, ratio of CC50 for human TZM-bl cells to EC50 for HIV1 NL4-3; assay type: toxicity, cell-based; settings: read-out: Ratio CC50/EC50
[4] = Cytotoxicity against HIV1 NL4-3 infected human TZM-bl cells assessed as reduction in cell viability after 3 days by WST1 assay; assay type: cell-based; settings: HIV1 NL4-3 infected TZM-bl cells
[5] = tested on: Human immunodeficiency virus 1; experiment: Antiviral activity against HIV1 NL4-3 infected in human TZM-bl cells treated 4 hrs before infection measured after 48 hrs postinfection by beta-D-galactopyranoside assay; assay type: functional, organism-based; settings: Human immunodeficiency virus 1, NL4-3, TZM-bl

T1 sequence (Q7ZJM1 whole entry): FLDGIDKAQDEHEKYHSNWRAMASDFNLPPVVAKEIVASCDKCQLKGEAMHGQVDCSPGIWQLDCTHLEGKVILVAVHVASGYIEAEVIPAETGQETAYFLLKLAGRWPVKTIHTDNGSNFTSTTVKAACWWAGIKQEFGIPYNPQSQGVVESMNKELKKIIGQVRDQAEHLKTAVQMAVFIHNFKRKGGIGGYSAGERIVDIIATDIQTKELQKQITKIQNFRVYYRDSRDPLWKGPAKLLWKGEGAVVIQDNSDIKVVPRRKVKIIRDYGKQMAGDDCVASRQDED

IC50 [1] | IC50 [2] | EC50 [5] | SMILES | selectivity ratio [3] | CC50 at 72 h [4]
1.6 µM | 0.03 µM | 4 µM | O=C(O)C(=O)CC(=O)c1cn(Cc2ccc(F)cc2)c2ccc(Br)cc2c1=O | > 250 | > 1000 µM
78 µM | 0.12 µM | 17 µM | CCOC(=O)C(=O)CC(=O)c1cn(Cc2ccc(F)cc2)c2ccc(Br)cc2c1=O | > 59 | > 1000 µM
